Assays:
HEK-hERG cells = type: cell-based, human; conditions: microscopic imaging, data not shown
Experimental: To confirm these findings, several follow-up studies were carried out.

hERG channel = hERG channel (Homo sapiens, UniProt Q12809); conditions: 10 micromolar; cited from earlier work
Chain of hERG channel (Q12809 whole entry): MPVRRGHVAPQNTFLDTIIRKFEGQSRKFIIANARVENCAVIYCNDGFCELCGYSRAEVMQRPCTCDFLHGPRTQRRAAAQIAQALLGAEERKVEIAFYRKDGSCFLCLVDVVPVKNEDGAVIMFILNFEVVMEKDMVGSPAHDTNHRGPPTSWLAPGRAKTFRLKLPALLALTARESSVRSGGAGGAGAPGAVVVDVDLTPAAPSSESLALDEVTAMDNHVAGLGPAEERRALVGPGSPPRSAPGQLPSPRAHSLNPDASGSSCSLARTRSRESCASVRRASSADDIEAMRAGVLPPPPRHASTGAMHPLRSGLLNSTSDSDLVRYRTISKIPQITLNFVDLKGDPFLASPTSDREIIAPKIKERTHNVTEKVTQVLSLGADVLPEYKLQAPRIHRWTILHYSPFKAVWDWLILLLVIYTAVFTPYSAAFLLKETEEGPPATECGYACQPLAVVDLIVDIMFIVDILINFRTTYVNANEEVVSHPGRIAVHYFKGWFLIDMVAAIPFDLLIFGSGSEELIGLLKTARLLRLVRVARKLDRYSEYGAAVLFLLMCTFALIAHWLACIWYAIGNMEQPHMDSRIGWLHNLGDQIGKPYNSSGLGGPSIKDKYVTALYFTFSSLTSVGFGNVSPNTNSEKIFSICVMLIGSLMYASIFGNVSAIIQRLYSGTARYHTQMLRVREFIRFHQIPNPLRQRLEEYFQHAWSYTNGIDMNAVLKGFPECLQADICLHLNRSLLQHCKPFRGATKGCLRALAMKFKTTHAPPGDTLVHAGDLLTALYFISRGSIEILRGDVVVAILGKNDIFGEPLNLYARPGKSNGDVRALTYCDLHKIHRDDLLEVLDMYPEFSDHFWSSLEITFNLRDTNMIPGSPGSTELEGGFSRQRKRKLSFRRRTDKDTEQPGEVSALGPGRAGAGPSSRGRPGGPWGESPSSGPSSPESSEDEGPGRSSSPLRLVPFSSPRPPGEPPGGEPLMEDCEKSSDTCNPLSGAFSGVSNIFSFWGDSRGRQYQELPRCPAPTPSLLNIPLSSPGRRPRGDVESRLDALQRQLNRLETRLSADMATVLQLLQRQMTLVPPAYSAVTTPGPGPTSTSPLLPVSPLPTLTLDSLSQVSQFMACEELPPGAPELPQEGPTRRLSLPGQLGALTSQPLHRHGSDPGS

Compound: CC(=O)c1c(O)c(C)c(O)c(Cc2c(O)c3c(c(C(=O)/C=C/c4ccccc4)c2O)OC(C)(C)C=C3)c1O [mallotoxin]
- cell toxicity at high doses (HEK-hERG cells): caused cell apoptosis
- shift of half maximal activation voltage (V1/2) to the hyperpolarizing direction (hERG channel): more than 25 mV
